Where two headings read alike, the source gives them in different places.
How the values were obtained:
filaggrin gene = test: Filaggrin gene expression test by acyl valines or acyl alanines (real time PCR, 24 hours); type: cell-based; conditions: Homo sapiens
Description: Human normal epidermal keratinocytes NHEK (NB) (manufactured by KURABO INDUSTRIES LTD.) were precultured with HuMedia-KG2 (manufactured by KURABO INDUSTRIES LTD.) and the precultured human normal epidermal keratinocytes were adjusted in a concentration of 15×10^4 cells/mL. After adjusting the concentration, 2 mL of the culture solution (that is, 30×10^4 cells/well) was poured to a plate having 6 wells and the poured culture solution was cultivated for 1 day. […] C12Ala), decanoyl-alanine (Example 21: C10Ala), octanoyl-alanine (Example 22: C8Ala), hexanoyl-alanine (Example 23: C6Ala), and butanoyl-alanine (Example 24: C4Ala)) were added to the wells so that each of the samples has the concentration illustrated in respective graphs and the added samples were reacted for 24 hours. After the reaction, entire RNA was extracted from the cells and subjected to reverse transcription. The amplified amounts of the target gene (filaggrin) were measured by real time PCR (n=2). […] GAPDH was used as a corrected gene. Calculation was carried out using a comparative CT method. TaqMan (registered trademark) Gene Expression was used as a primer and a probe and FAM was used as a fluorescent dye. The following evaluation was carried out depending on the amplified amounts. The results are listed in Table 2 and 3 and illustrated in FIGS. 4 and 5.

[1] = Moisture absorption/retention test; type: physicochemical; conditions: for Increased weight ratio after 7 days at 35% RH (%) (B): following 65% RH; for (B)/(A) × 100(%): ratio of weight increase at 35% RH to that at 65% RH; for moisturizing power: compared with glycerol and sorbitol
From the text: About 1 g of each compound was precisely weighed in a weighing bottle and the weighed samples were placed in a constant-temperature and constant-humidity chamber (LH-30-10, manufactured by NAGANO SCIENCE CO, LTD.) in which the humidity was set to 65% RH to measure a weight increase ratio (A) after 7 days. Subsequently, the same samples were placed in the constant-temperature and constant-humidity chamber in which the humidity was set to 35% RH to measure a weight increase ratio (B) after 7 days. It can be considered that, as the ratio of (B) to (A) becomes higher, more moisture can be retained even when the environment becomes low humidity and thus that the compound having the higher value of the ratio can be considered as a compound having higher moisturizing power.

[2] = system: Human normal epidermal keratinocytes NHEK (NB); test: Cytotoxicity test (Neutral Red, cell survival rate); type: cell-based; conditions: 500 μM, 24 hours; for Cell survival rate (%): relative to light absorbance of the control
Description: Human normal epidermal keratinocytes NHEK (NB) (manufactured by KURABO INDUSTRIES LTD.) were precultured with HuMedia-KG2 (manufactured by KURABO INDUSTRIES LTD.) and the precultured human normal epidermal keratinocytes were adjusted in a concentration of 15×10^4 cells/mL. After adjusting the concentration, 2 mL of the culture solution (that is, 30×10^4 cells/well) was poured to a plate having 6 wells and the poured culture solution was cultivated for 1 day. Samples (lauroyl-valine (Example 25: C12Val), decanoyl-valine (Example 26: C10Val), octanoyl-valine (Example 27: C8Val), hexanoyl-valine (Example 28: C6Val), butanoyl-valine (Example 29: C4Val), and acetyl-valine (Example 30: C2Val)) were added to the wells so that each of the samples has the concentration illustrated in respective graphs and the added samples were reacted for 24 hours. Thereafter, the culture medium was discarded and replaced with 2 mL/well of Neutral Red solution. The resultant sample was further cultured for 2 hours. As the Neutral Red solution, a solution prepared by diluting Neutral Red (manufactured by KURABO INDUSTRIES LTD.) with HuMedia-KG2 culture medium/normal saline solution (2:1) to 1/100 was used. The cells stained with the Neutral Red solution were washed with PBS (-) one time, thereafter fixed by 1.5 mL/well of 1% CaCl2/1% formalin solution, extracted by adding 1.5 mL/well of 1% acetic acid/50% ethanol solution at room temperature for 20 minutes. The light absorbance of the resultant sample was measured using a plate reader at 540/630 nm.
The following evaluation was carried out depending on the cell survival rates. The results are listed in Table 4 and illustrated in FIG. 6.

[3] = 24 hours, NHEK (NB), control = 100%, read-out: Amplified amount (%)
[4] = 24 hours, NHEK (NB), read-out: Evaluation (amplified amount)
[5] = 10 μM, 24 hours, NHEK (NB), control = 100%, read-out: Amplified amount (%)
[6] = 10 μM, 24 hours, NHEK (NB), read-out: Evaluation (amplified amount)

Row | Compound | activity at 500 µM (filaggrin gene; [3]) | activity at 500 µM (filaggrin gene; [4]) | Evaluation (cell survival rate) [2] | Cell survival rate (%) [2] | other results
1 | CCCCCC(=O)N[C@@H](C)C(=O)O [Example 23, hexanoyl-alanine] | 125% | 100 to 200% |  |  | 
2 | CCCCCCCCCC(=O)N[C@@H](C)C(=O)O [Example 21, decanoyl-alanine] |  |  |  |  | activity at 10 µM (filaggrin gene; [5]): 117%; activity at 10 µM (filaggrin gene; [6]): 100 to 200%
3 | OC[C@@H](O)[C@@H](O)[C@H](O)[C@@H](O)CO [Comparative Example 4, Sorbitol, reference compound] |  |  |  |  | Increased weight ratio after 7 days at 35% RH (%) (B) [1]: 0.5%; Increased weight Ratio after 7 days at 65% RH (%) (A) [1]: 4.2%; (B)/(A) × 100(%) [1]: 12.0%
4 | CCCCCCCCCCCC(=O)N[C@@H](C)C(=O)O [Example 20, lauroyl-alanine] |  |  |  |  | activity at 10 µM (filaggrin gene; NHEK, 24 h, read-out: Amplified amount (%)): 128%; activity at 10 µM (filaggrin gene; NHEK, 24 h, read-out: Evaluation (amplified amount)): 100 to 200%
5 | CC(=O)N[C@H](C(=O)O)C(C)C [Example 19, acetyl-valine] | 141% | 100 to 200% | A (99% or higher) | 105% | 
6 | CCCCCC(=O)N[C@H](C(=O)O)C(C)C [Example 17, hexanoyl-valine] | 112% | 100 to 200% | A (99% or higher) | 99% | 
7 | OCC(O)CO [Comparative Example 3, Glycerol, reference compound] |  |  |  |  | Increased weight ratio after 7 days at 35% RH (%) (B) [1]: 13.2%; Increased weight Ratio after 7 days at 65% RH (%) (A) [1]: 48.1%; (B)/(A) × 100(%) [1]: 27.4%
8 | CCCCCCCCCCCC(=O)N[C@H](C(=O)O)C(C)C [Example 14, lauroyl-valine] |  |  | D (Lower than 50%) | 3% | cytotoxicity ([2]; in words): high; activity at 10 µM (filaggrin gene; [5]): 200%; activity at 10 µM (filaggrin gene; [6]): > 200%
9 | CCCC(=O)N[C@H](C(=O)O)C(C)C [Example 18, butanoyl-valine] | 126% | 100 to 200% | A (99% or higher) | 102% | 
10 | CCCCCCCCCC(=O)N[C@H](C(=O)O)C(C)C [Example 15, decanoyl-valine] |  |  | B (75% or higher and lower than 99%) | 75% | activity at 10 µM (filaggrin gene; [5]): 171%; activity at 10 µM (filaggrin gene; [6]): 100 to 200%
11 | CCCC(=O)N[C@@H](C)C(=O)O [Example 24, butanoyl-alanine] | 162% | 100 to 200% |  |  | 
12 | CCCCCCCC(=O)N[C@H](C(=O)[O-])C(C)C.[Na+] [Example 12, N-octanoyl-L-valine sodium salt] |  |  |  |  | Increased weight ratio after 7 days at 35% RH (%) (B) [1]: 8.4%; Increased weight Ratio after 7 days at 65% RH (%) (A) [1]: 25.4%; moisturizing power [1]: high moisturizing power; (B)/(A) × 100(%) [1]: 33.2%
13 | CCCCCCCC(=O)N[C@H](C(=O)O)C(C)C [Example 16, octanoyl-valine] | 302% | > 200% | A (99% or higher) | 100% | 
14 | CCCCCCCC(=O)N[C@@H](C)C(=O)O [Example 22, octanoyl-alanine] | 256% | > 200% |  |  | 
15 | CCCCCCCC(=O)N[C@@H](C)C(=O)[O-].[Na+] [Example 13, N-octanoyl-L-alanine sodium salt] |  |  |  |  | Increased weight ratio after 7 days at 35% RH (%) (B) [1]: 10.6%; Increased weight Ratio after 7 days at 65% RH (%) (A) [1]: 29.6%; moisturizing power [1]: high moisturizing power; (B)/(A) × 100(%) [1]: 35.9%
